Broadly, the pIC50 is the negative decadic logarithm of the IC50, by convention in mol/L.

Drawing on ChEMBL document CHEMBL1158113, “Terpenoids and a diarylheptanoid from Zingiber ottensii” (J Nat Prod, 2006), this text covers IC50 for six compounds.

pIC50: −log10 of the molar value.

This assay relates to Radical scavenging activity. The assay can be described thus: Antioxidant activity assessed as DPPH free radical scavenging activity after 30 mins by multilabel counter. Type of assay: functional.

For the compound `COc1cc(CC[C@@H](O)C[C@@H](O)CCc2ccc(O)c(OC)c2)ccc1O`, the negative logarithm of the IC50 (pIC50) was 4.69. For `COc1cc(CC[C@H](O)C[C@@H](O)CCc2ccc(O)c(OC)c2)ccc1O` the value was 4.70; for `COc1cc(CC[C@H](O)C[C@@H](O)CCc2cc(OC)c(O)c(OC)c2)ccc1O`, 4.79; for `COc1cc(CC[C@@H](O)C[C@@H](O)CCc2ccc(O)c(O)c2)ccc1O` (relative stereo), 4.62. As for `Cc1c(C)c2c(c(C)c1O)CC[C@@](C)(CCC[C@H](C)CCC[C@H](C)CCCC(C)C)O2` [ALPHA-TOCOPHEROL], the pIC50 was 4.43. As to `O=C1O[C@H]([C@@H](O)CO)C(O)=C1O` [ASCORBIC ACID], the pIC50 was 4.45.
